Experimental data as given in publication PMC3726599, “A Metabolically-Stabilized Phosphonate Analog of Lysophosphatidic Acid Attenuates Collagen-Induced Arthritis” (PLoS ONE, 2013).

Key:
[1] = tested on: collagen induced arthritis (CIA); assay: Collagen induced arthritis (CIA) in DBA/1 mice; format: in vivo, mouse
Experimental: CIA in DBA/1 mice was induced by immunization with collagen type II emulsified in complete Freund's adjuvant essentially as previously described, [43]. Mice were assessed for disease clinical signs two to three times per week. Clinical signs of arthritis were determined using the following scoring system: 0: no evidence of erythema and swelling; 1: erythema and mild swelling confined to the […] or ankle joint; 2: erythema and mild swelling extending from the ankle to the […]; 3: erythema and moderate swelling extending from the ankle to metatarsal joints; 4: erythema and severe swelling encompassing the ankle, foot and digits, or ankylosis of the limb.
Paraffin-embedded joint tissue samples were sectioned and stained with hematoxylin and eosin as previously described, [44]. Arthritic histopathology in mice was assessed (in a blinded fashion from 3 independent examiners) using a semi-quantitative scoring system as previously described for CIA in a DBA/1 (H-2^q) background. 0: no detectable pathology; 1: hyperplasia of the synovial membrane and presence of polymorphonuclear infiltrates – mild tendonitis may be present; 2: pannus and fibrous tissue formation and focal subchondrial bone erosion: 3: cartilage destruction and bone erosion in multiple foci; 4: extensive cartilage destruction and bone erosion- bone outline structure lost. Presented results refer to an average score of all four joints.
To examine the therapeutic potential of targeting the ATX/LPA axis in RA, BrP-LPA was injected intraperitoneally twice a week (following immunization boost; Fig. 4A), in groups of mice undergoing the development of collagen induced arthritis (CIA).
A. Schematic representation of immunization and drug administration schemes. DBA/1 mice subjected to CIA were treated intraperitoneally with vehicle, BrP-LPA (10 mg/kg), or dexamethasone (Dex, 3 mg/kg) twice a week. B–C. […] Data are pooled from two different experiments (n = 10). […] Joint sections were assessed histologically in a blinded manner by three independent examiners. Data are shown as mean joint values per mouse ± SD. […] Levels of CII-specific Abs were determined by ELISA in mouse sera.

[2] = Mouse pharmacokinetics, plasma BrP-LPA by HPLC-MS/MS; format: in vivo; settings: 10 mg/kg i.p.
Experimental: BrP-LPA, LPA species (C14:0, C16:0, C18:0, C18:1 and C20:4) and LPC species (C14:0, C16:0, C18:0, C18:1 and C20:0) were measured in plasma with HPLC-ESI/MS/MS using RSLCnano system (Ultimate 3000) coupled in-line with an LTQ Orbitrap XL mass spectrometer (Thermo Scientific, Waltham, MA, USA). BrP-LPA and lipid (LPA, LPC) extraction from plasma was performed on ice according to the Folch method with minor modifications. Plasma samples (50 ul) were mixed with 950 ul PBS prior to extraction and spiked with the internal standard mix (17:1 LPA/LPC). Samples were extracted under neutral conditions with 4 ml of ice-cold CHCl3/CH3OH (2/1, v/v) followed by 2 ml of PBS-saturated ice-cold CHCl3/CH3OH (2/1, v/v). Each extraction step was followed by a 60 s vortex and a 1 min centrifugation step in a bench-top clinical centrifuge in a cold room at 4°C at 3,000 rpm. The lower chloroform organic phases from both neutral extraction steps were pooled and kept for LPC measurement. The remained aqueous phase was chilled on ice for 10 min and extracted twice with ice-cold acidified with acetic acid CHCl3/CH3OH (2/1, v/v) as above. The lower organic phases were pooled, neutralized to pH 6–7 (checked with pH paper as above) on ice and kept for LPA, BrP-LPA measurements. The kept neutral lower organic phase of neutral extraction and the neutralized acidified lower organic phase were evaporated to dryness. The resulting residues were resuspended in 0.15 ml of isopropanol and after brief vortex mixing the solution was transferred to the auto sampler vial. Recovery of LPA species was between 60% and 95%. Recovery of BrP-LPA was 70% and the recovery of LPC species was between 80% and 100%. […] The precursor ion mass was used for the quantification while lipid identity was confirmed by precursor ion fragmentation using collision induced dissociation (CID). […]
BrP-LPA was administered intraperitoneally (IP) at 10 mg/kg in water to 6–8 week old female mice. […] Plasma samples were then analysed for plasma ATX activity and BrP-LPA/LPA/LPC levels with the TOOS activity assay and HPLC-MS/MS respectively. […]

[3] = 10 mg/kg i.p. twice a week, DBA/1 mice

BrP-LPA levels in joint tissue versus liver tissue and plasma ([1]; data not shown): persist for longer in joint tissue | Cmin ([2]; at 16 h): 0.15 µM | Cmax ([2]; female mice): 8 µM | t1/2 ([2]; female mice): 50 min
Structure (SMILES): CCCCCCCCCCCCCCCC(=O)OC[C@@H](O)CC(Br)P(=O)(O)O (stereo partly drawn) [BrP-LPA, 1-bromo-3(S)-hydroxy-4-(palmitoyloxy)butyl-phosphonate]
development of arthritis (number of arthritic limbs per mouse) [1, 3]: development of arthritis in significantly fewer mice | severity per arthritic limb [1, 3]: reduced severity per arthritic limb | histopathological analysis of the joints ([1]; 10 mg/kg i.p. twice a week, H&E): marked decreased inflammation and synovial hyperplasia | gross physiology / systemic side effects ([1]; 10 mg/kg i.p. twice a week, data not shown): no appreciable alternation of gross physiology | levels of anti-collagen antibodies ([1]; ELISA in mouse sera): did not interfere with the levels of anti-collagen antibodies | LPA (or LPC) levels in plasma or joint tissue at end of monitoring ([1]; three days after the last injection, data not shown): no changes in LPA (or LPC) levels were detected
